# Source: patent US7597904B2, “Metalloproteinase inhibitory agent” (Nestec S.A., priority 2004, dated 2009)
# Residues, ends and D or L forms follow the SMILES beside them.
# Tests used:
# MMP-7 = target: T1, MMP-7 (Homo sapiens, UniProt P09237); assay: Matrix metalloproteinase inhibitory test, DQ-gelatin substrate; assay type: biochemical; conditions: flourescein conjugated gelatin; read-out: IC50 for the inhibition of MMP-7
# T1 sequence (P09237 95-267): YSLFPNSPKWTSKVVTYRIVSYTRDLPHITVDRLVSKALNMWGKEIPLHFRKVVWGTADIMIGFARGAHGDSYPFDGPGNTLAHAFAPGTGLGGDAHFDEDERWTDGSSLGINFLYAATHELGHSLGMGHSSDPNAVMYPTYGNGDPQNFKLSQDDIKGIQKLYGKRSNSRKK
# Method: (§1) Matrix Metalloproteinase Inhibitory Test
# (§2) The assay was performed in microtiter plates. In each single well 1 μl enzyme, the inhibitor at the desired concentration and finally 5 μl substrate were added to PBS buffer (pH 7.0-7.5), final volume: 200 μl. The reaction mixture was incubated at 37° C. for 2 hours. The increase in fluorescence was continuously recorded, exciting at 485 nm and reading the emission at 530 nm, with a gain of 40.
# (§3) Inhibitors:— o-phenantroline: 9.9 mg in 25 μl DMF (dimethylformamide→add 1 μl (final concentration: 10 mM) • synthetic inhibitors at different concentrations
# (§4) Substrate: DQ-gelatin: 1 mg/ml in PBS→add 5 μl to the reaction (reaction volume: 200 μl) (final concentration: […])
# (§5) Enzymes: • MMP-7: stock solution: 1 U/μl • MMP-2: stock solution: 0.05 μg/μl • MMP-9: stock solution: 0.05 μg/μl Results & Discussion Generation of the Peptide Library with Lb. helveticus CNCM I-2864 . . .
# MMP-2 = target: T2, MMP-2 (Homo sapiens, UniProt P08253); assay: as above; assay type: biochemical; conditions: flourescein conjugated gelatin; read-out: IC50 for the inhibition of MMP-2
# T2 sequence (P08253 110-660): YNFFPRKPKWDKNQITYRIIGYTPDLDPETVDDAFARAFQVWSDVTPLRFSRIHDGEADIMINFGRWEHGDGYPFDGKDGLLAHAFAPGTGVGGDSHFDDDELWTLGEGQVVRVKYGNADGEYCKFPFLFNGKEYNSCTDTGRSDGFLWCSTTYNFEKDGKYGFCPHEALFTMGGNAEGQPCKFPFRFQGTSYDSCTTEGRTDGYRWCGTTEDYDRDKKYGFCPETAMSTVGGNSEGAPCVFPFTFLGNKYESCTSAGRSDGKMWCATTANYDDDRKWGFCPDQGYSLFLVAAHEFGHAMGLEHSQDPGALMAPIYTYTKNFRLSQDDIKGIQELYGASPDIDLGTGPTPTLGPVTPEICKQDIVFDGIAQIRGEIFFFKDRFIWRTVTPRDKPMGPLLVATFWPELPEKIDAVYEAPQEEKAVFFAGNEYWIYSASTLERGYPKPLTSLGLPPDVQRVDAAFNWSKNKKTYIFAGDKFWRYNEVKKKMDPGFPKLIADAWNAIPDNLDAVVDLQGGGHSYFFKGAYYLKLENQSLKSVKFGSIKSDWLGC
# Method: as §1, §2, §3, §4, §5
# MMP-9 = MMP-9 (Homo sapiens, UniProt P14780); assay: as above; assay type: biochemical; conditions: flourescein conjugated gelatin; read-out: IC50 for the inhibition of MMP-9
# Sequence of MMP-9 (P14780 94-707, species assumed): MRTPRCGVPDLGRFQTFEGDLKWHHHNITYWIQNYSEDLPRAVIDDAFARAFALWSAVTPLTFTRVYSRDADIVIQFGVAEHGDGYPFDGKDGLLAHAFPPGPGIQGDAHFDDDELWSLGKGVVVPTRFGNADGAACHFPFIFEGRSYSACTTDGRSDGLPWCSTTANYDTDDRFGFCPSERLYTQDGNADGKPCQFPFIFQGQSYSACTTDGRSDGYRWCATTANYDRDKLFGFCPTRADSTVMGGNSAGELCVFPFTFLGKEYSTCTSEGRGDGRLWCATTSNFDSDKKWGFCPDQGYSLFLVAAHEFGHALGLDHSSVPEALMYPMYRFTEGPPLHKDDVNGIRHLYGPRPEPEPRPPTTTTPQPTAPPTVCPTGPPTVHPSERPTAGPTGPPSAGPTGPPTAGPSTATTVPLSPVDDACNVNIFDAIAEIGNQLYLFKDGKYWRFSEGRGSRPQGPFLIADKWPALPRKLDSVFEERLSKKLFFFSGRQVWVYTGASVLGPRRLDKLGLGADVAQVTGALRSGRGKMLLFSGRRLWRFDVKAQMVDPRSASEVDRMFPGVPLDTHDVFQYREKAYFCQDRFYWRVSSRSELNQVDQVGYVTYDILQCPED
# Method: as §1, §2, §3, §4, §5
# ACE = target: T3, ACE (Homo sapiens, UniProt P12821); assay: Angiotensin-converting-enzyme inhibitory test, FAPGG substrate; assay type: biochemical; conditions: substrate N-[3-2(furyl)acryloyl]L-phenylalanylglycylglycine; read-out: IC50 for the inhibition of ACE
# T3 construct: purchased
# T3 sequence (P12821 30-1306, species assumed): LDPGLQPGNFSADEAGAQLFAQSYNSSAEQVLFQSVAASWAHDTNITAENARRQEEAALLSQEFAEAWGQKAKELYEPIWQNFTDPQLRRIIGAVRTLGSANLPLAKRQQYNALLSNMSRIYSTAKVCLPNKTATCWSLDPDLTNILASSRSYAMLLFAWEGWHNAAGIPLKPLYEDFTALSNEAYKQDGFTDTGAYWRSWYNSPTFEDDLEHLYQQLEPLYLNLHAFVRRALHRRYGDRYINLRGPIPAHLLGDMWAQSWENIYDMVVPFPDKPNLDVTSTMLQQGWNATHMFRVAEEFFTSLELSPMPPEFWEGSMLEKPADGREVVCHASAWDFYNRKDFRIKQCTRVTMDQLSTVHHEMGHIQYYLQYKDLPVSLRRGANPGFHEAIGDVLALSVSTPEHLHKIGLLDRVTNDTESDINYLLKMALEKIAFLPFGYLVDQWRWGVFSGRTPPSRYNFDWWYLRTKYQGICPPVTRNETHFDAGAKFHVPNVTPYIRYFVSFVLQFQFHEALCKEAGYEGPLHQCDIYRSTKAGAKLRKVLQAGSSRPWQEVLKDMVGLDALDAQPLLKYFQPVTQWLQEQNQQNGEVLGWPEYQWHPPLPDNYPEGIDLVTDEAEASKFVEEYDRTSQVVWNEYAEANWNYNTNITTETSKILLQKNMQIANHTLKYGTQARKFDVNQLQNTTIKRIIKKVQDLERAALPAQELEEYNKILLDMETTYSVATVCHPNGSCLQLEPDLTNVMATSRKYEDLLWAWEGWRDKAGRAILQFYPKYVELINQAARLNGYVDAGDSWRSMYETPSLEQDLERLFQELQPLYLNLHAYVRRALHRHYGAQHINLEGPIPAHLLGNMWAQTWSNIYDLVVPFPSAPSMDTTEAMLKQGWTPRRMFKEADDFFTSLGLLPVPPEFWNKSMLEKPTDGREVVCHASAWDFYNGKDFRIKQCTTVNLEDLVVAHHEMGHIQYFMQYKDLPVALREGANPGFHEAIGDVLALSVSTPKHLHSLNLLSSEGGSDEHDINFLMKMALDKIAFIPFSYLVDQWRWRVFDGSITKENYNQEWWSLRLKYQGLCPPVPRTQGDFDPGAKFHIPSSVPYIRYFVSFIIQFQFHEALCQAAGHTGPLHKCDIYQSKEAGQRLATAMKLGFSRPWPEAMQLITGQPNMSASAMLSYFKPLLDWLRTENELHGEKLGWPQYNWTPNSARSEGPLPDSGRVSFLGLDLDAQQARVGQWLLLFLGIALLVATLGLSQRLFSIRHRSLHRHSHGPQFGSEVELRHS
# Method: Angiotensin-Converting-Enzyme Inhibitory Test
# This procedure is a rapid spectrophotometric method utilizing the synthetic tripeptide substrate N-[3-(2-furyl)acryloil]-L-phenylalanylglycylglycine (FAPGG). Km-value: 0.3 mM.
# FAPGG was hydrolysed to furylacryloylphenylalanine (FAP) and glycylgylcine.
# The ACE reagent and the ACE Calibrator were reconstituted according to the manufacturer's recommendations.
# The assay was performed in quartz cuvets. 0.05 ml ACE Reagent Solution, 0.05 ml casein hydrolysate and 0.05 ml ACE calibrator were mixed and incubated at 37° C. for 10 minutes.
# The absorbance at 340 nm was measured as a function of time.
# The ACE activity in the sample was determined by comparing the sample reaction rate to that obtained with the ACE calibrator. The results are expressed as percentage with respect to the control.
# HT-29 cells = assay: Proliferation of HT-29 cells with synthetic peptides (percentage of counts); assay type: cell-based, human; conditions: for antiproliferative activity of synthetic peptides (in words): HT-29 cells
# Method: Undifferentiated cells (passages 45-78) were maintained in glucose-containing DMEM supplemented with 10% FCS at 37° C. in a 5% CO2/air incubator. Culture medium was changed every two days until the cell monolayers reached 50% confluence. For stimulation assays, HT-29 cells were plated at 1.2*10^4 cells/well in 96-well flat-bottom plates. After incubation for 4 days, the amount of cells present in the wells before incubation with the samples was assessed adding neutral red solution in 4 wells and incubating the plate for 45 min. The HT-29 cells were then washed twice with serum-free media (inclusive the wells with neutral red solution). The wells colored with neutral red remained from now on free of any media.
# Synthetic peptides that were tested on HT-29 cell line confirmed their antiproliferative potential.
# The same experiment was performed with a shorter version of the former mentioned peptide: ENLLRFFVAPFPEVFG (SEQ ID NO:22) (αS1 33-48).
# MMPs = conditions: background statement; cited from earlier work
# MMP = assay: Matrix metalloproteinase inhibitory test, positive control; assay type: biochemical; conditions: 10 mM concentration; data not shown
# Method: as §1, §2, §3
Structure (SMILES),IC50 (MMP-7) [µM],IC50 (MMP-2) [µM],IC50 (MMP-9) [µM],IC50 (ACE) [µM],also measured
CC(C)C[C@H](NC(=O)[C@H](CC(C)C)NC(=O)[C@@H]1CCCN1C(=O)[C@H](CC(C)C)NC(=O)[C@@H]1CCCN1C(=O)[C@H](CC(C)C)NC(=O)[C@H](Cc1c[nH]cn1)NC(=O)[C@H](CC(C)C)NC(=O)[C@H](CC(N)=O)NC(=O)[C@@H](N)CCC(=O)O)C(=O)O [ENLHLPLPLL] (H-ENLHLPLPLL-OH; N-terminus and C-terminus assumed),275,200,300,250,–
CC(C)C[C@H](NC(=O)[C@H](CC(C)C)NC(=O)[C@H](CC(N)=O)NC(=O)[C@@H](N)CCC(=O)O)C(=O)N[C@@H](CCCNC(=N)N)C(=O)N[C@@H](Cc1ccccc1)C(=O)N[C@@H](Cc1ccccc1)C(=O)N[C@H](C(=O)N[C@@H](C)C(=O)N1CCC[C@H]1C(=O)N[C@@H](Cc1ccccc1)C(=O)N1CCC[C@H]1C(=O)N[C@@H](CCC(=O)O)C(=O)N[C@H](C(=O)N[C@@H](Cc1ccccc1)C(=O)NCC(=O)O)C(C)C)C(C)C [ENLLRFFVAPFPEVFG] (H-ENLLRFFVAPFPEVFG-OH; N-terminus and C-terminus assumed),1000,425,150,250,antiproliferative activity of synthetic peptides (in words) (HT-29 cells): antiproliferative pattern similar to the one observed for LNENLLRFFVAPFPEVFG
CC(C)[C@H](NC(=O)[C@H](CCC(=O)O)NC(=O)[C@@H]1CCCN1C(=O)[C@H](Cc1ccccc1)NC(=O)[C@@H]1CCCN1C(=O)[C@H](C)NC(=O)[C@@H](NC(=O)[C@@H](N)Cc1ccccc1)C(C)C)C(=O)N[C@@H](Cc1ccccc1)C(=O)NCC(=O)O [FVAPFPEVFG] (H-FVAPFPEVFG-OH; N-terminus and C-terminus assumed),300,500,400,650,–
CC(C)C[C@H](NC(=O)[C@H](CC(C)C)NC(=O)[C@H](CC(N)=O)NC(=O)[C@H](CCC(=O)O)NC(=O)[C@H](CC(N)=O)NC(=O)[C@@H](N)CC(C)C)C(=O)N[C@@H](CCCNC(=N)N)C(=O)N[C@@H](Cc1ccccc1)C(=O)N[C@@H](Cc1ccccc1)C(=O)N[C@H](C(=O)N[C@@H](C)C(=O)N1CCC[C@H]1C(=O)N[C@@H](Cc1ccccc1)C(=O)N1CCC[C@H]1C(=O)N[C@@H](CCC(=O)O)C(=O)N[C@H](C(=O)N[C@@H](Cc1ccccc1)C(=O)NCC(=O)O)C(C)C)C(C)C [LNENLLRFFVAPFPEVFG] (H-LNENLLRFFVAPFPEVFG-OH; N-terminus and C-terminus assumed),300,250,150,280,antiproliferative activity of synthetic peptides (in words) (HT-29 cells): strongly inhibited proliferation; % prolif (percentage of counts with respect to the control) (HT-29 cells; peptide concentration 2 μM): 56%; % prolif (percentage of counts with respect to the control) (HT-29 cells; peptide concentration 4 μM): 44%; % prolif (percentage of counts with respect to the control) (HT-29 cells; peptide concentration 8 μM): 160%; % prolif (percentage of counts with respect to the control) (HT-29 cells; peptide concentration 17 μM): 114%; % prolif (percentage of counts with respect to the control) (HT-29 cells; peptide concentration 33 μM): 131%; % prolif (percentage of counts with respect to the control) (HT-29 cells; peptide concentration 66 μM): 119%; % prolif (percentage of counts with respect to the control) (HT-29 cells; peptide concentration 133 μM): 135%
CC(C)C[C@H](NC(=O)[C@H](CC(C)C)NC(=O)[C@H](CC(N)=O)NC(=O)[C@H](CCC(=O)O)NC(=O)[C@@H](N)CC(N)=O)C(=O)N[C@@H](CCCNC(=N)N)C(=O)N[C@@H](Cc1ccccc1)C(=O)N[C@@H](Cc1ccccc1)C(=O)N[C@H](C(=O)N[C@@H](C)C(=O)N1CCC[C@H]1C(=O)N[C@@H](Cc1ccccc1)C(=O)N1CCC[C@H]1C(=O)N[C@@H](CCC(=O)O)C(=O)N[C@H](C(=O)N[C@@H](Cc1ccccc1)C(=O)NCC(=O)O)C(C)C)C(C)C [NENLLRFFVAPFPEVFG] (H-NENLLRFFVAPFPEVFG-OH; N-terminus and C-terminus assumed),850,275,50,55,–
CC(C)C[C@H](NC(=O)[C@H](CC(C)C)NC(=O)[C@@H]1CCCN1C(=O)[C@H](CC(C)C)NC(=O)[C@@H]1CCCN1C(=O)[C@H](CC(C)C)NC(=O)[C@H](Cc1c[nH]cn1)NC(=O)[C@H](CC(C)C)NC(=O)[C@@H](N)CC(N)=O)C(=O)O [NLHLPLPLL] (H-NLHLPLPLL-OH; N-terminus and C-terminus assumed),1200,450,600,15,–
CC(C)C[C@H](NC(=O)[C@H](CC(C)C)NC(=O)[C@@H]1CCCN1C(=O)[C@H](CC(C)C)NC(=O)[C@@H]1CCCN1C(=O)[C@H](CC(C)C)NC(=O)[C@H](Cc1c[nH]cn1)NC(=O)[C@H](CC(C)C)NC(=O)[C@H](CC(N)=O)NC(=O)[C@H](CCC(=O)O)NC(=O)[C@@H](N)C(C)C)C(=O)O [VENLHLPLPLL] (H-VENLHLPLPLL-OH; N-terminus and C-terminus assumed),250,150,300,175,–
CNC(=O)[C@@H](NC(=O)[C@H](CC(C)C)[C@H](O)C(=O)NO)C(C)(C)C [marimastat],–,–,–,–,IC50 (MMPs): micromolar range
c1cnc2c(c1)ccc1cccnc12 [o-phenantroline],–,–,–,–,MMP inhibition (in words) (MMP): complete MMP inhibition
